test system: angiotensine convertase; assay: Inhibition of circulating angiotensin convertase in the anaesthetised rat (protocol of D.M. Gross et al.), i.v. dosing; type: in vivo; details: I.V. dose inhibiting 50% of the activity of the angiotensine convertase present in the circulation
Excerpt: Les composés de l'invention ont été soumis à une étude pharmacologique chez le rat anesthésié selon le protocole décrit par D.M. GROSS et coll. [J. Phar- macol. and Exp. Ther. 216, 552-557, 1981 )].
La dose I.V. capable d'inhiber 50% de l'activité de l'angiotensine convertase présente dans la circulation (DE50) a été déterminée.

| Compound | DE50 |
| --- | --- |
| CCC[C@H](N[C@@H](C)C(=O)N1CC2CCCCC2[C@@H]1C(=O)O)C(=O)OCC (stereo partly drawn) [Exemple IV, [N-<(S)-éthoxycarbonyl-1 butyl>-(S)alanyl]-2 (R)-carboxy-1 perhydroisoindole] | >300 mg/kg |
| CCC[C@H](N[C@@H](C)C(=O)N1Cc2ccccc2[C@H]1C(=O)O)C(=O)OCC [Exemple I] | 0,022 mg/kg |
| CCC[C@H](N[C@@H](C)C(=O)N1Cc2ccccc2[C@@H]1C(=O)O)C(=O)OCC [II, (N-((S)-éthoxycarbonyl-1 butyl)-(S)alanyl]-2 (R)-carboxy-1 isoindoline] | 0,170 mg/kg |
| CCC[C@H](N[C@@H](C)C(=O)N1CC2CCCCC2[C@H]1C(=O)O)C(=O)OCC (stereo partly drawn) [III, [N-<(S)-éthoxycarbonyl-1 butyl)-(S) alanyl]-2 (S)-carboxy-1 perhydroisoindole, maléate] | 0,020 mg/kg |

From patent EP0129461B1, “Derivatives of isoindoledicarboxylic acids, their preparation and pharmaceutical compositions thereof” (ADIR, priority 1983, dated 1984)
